Each structure is given as a SMILES string.

K-Ras G12C, sequence (P01116 other isoform, or with tags, fused parts or gaps G12C): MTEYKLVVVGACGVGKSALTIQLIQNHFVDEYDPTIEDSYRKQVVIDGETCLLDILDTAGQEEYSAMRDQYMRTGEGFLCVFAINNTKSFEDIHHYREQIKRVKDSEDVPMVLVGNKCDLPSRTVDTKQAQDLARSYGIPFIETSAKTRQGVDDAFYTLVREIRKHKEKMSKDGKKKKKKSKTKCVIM

The test addresses K-Ras G12C (Homo sapiens (Human), UniProt P01116, G12C). The test can be described thus: Western blot assay for in cell alkylation of K-Ras G12C (HCC1171 cells). The class given is cell-based. Conditions: 18 hours at 37° C., 7 point dose response. The protocol:
HCC1171 cells were maintained in RPMI1640 supplemented with 10% FBS. Cells were plated in a 96-well plate at 20,000 cells/well and the following day compounds were added to the cells. After 18 hours at 37° C., cells were lysed in RIPA buffer (Sigma RO278) with 0.5% SDS and protease/phosphatase inhibitor cocktail. After through mixing to enable complete lysis, the lysates were cleared by centrifugation before 20 µl was transferred from each well and combined with loading buffer and reducing agent. After heating for 10 minutes at 95° C., […] of each sample was loaded onto a 4-20% Tris-Glycine gel and electrophoresed at 110V for 165 minutes in SDS-PAGE running buffer. Gels were transferred to a nitrocellulose membrane, blocked for 1 hour and stained overnight at 4° C. with primary antibody against K-Ras (polyclonal Proteintech 12063-1-AP). The membrane was then washed thoroughly and counterstained with anti-rabbit IRDye 800CW (LI-COR 926-32211) for one hour at room temperature. After final washes, the membrane was imaged on a LI-COR Odyssey CLx at medium resolution. […] To quantify this affect, the LICOR software was used to draw a rectangle over alkylated and unalkylated bands for each well and measured the total fluorescent intensity (FI) in each of these bands. The following formula was then used to calculate % alkylation: FI(alkylated)/(FI(alkylated)+FI(unalkylated))*100 for each well.
A 7 point dose response curve was used to determine the IC50 for each compound. Cell alkylation data are presented below in Table 3.
Background: In western blotting, separated proteins are transferred to a membrane and probed.
The term EC50 denotes the concentration giving half of the maximal effect. Read a low EC50 as higher potency in that assay. On to `C=CC(=O)N1CCN(c2ncnc3cc(-c4nc(N)ccc4OC(F)(F)F)c(Cl)cc23)CC1` [Example 40, 1-(4-[7-[6-amino-3-(trifluoromethoxy)pyridin-2-yl]-6-chloroquinazolin-4-yl]piperazin-1-yl)prop-2-en-1-one], for which a half-maximal effect (EC50) was put at 1100 nM.

`C=CC(=O)N1CCN(c2ncnc3cc(-c4nc(N)ccc4C(F)F)c(Cl)cc23)CC1` [Example 41, 1-(4-[7-[6-amino-3-(difluoromethyl)pyridin-2-yl]-6-chloroquinazolin-4-yl]piperazin-1-yl)prop-2-en-1-one]: the EC50 was 16000 nM.

Regarding `C=CC(=O)N1CCN(c2ncnc3cc(-c4nc(N)cc(C)c4C(F)(F)F)c(Cl)cc23)CC1` [Example 44, 1-(4-[7-[6-amino-4-methyl-3-(trifluoromethyl)pyridin-2-yl]-6-chloroquinazolin-4-yl]piperazin-1-yl)prop-2-en-1-one], a half-maximal effect (EC50) was put at 62 nM.

`C=CC(=O)N1CCN(c2nc(NCCN(C)C)nc3cc(-c4nc(N)ccc4C(F)(F)F)c(Cl)cc23)CC1` [Example 45, 1-(4-[7-[6-amino-3-(trifluoromethyl)pyridin-2-yl]-6-chloro-2-[[2-(dimethylamino)ethyl]amino]quinazolin-4-yl]piperazin-1-yl)prop-2-en-1-one] showed an EC50 of 2400 nM.

`C=C(F)C(=O)N1CCN(c2ncnc3cc(-c4nc(N)ccc4C(F)(F)F)c(Cl)cc23)C[C@@H]1C#N` [Example 46b, (2R)-4-[7-[6-amino-3-(trifluoromethyl)pyridin-2-yl]-6-chloroquinazolin-4-yl]-1-(2-fluoroprop-2-enoyl)piperazine-2-carbonitrile]: the response was half-maximal at 270 nM (EC50).

For the compound `C=CC(=O)N1CCN(c2ncnc3cc(-c4nc(N)ccc4C4CC4)c(OC)cc23)CC1` [Example 47, 1-[4-[7-(6-amino-3-cyclopropylpyridin-2-yl)-6-methoxyquinazolin-4-yl]piperazin-1-yl]prop-2-en-1-one], the EC50 was found to be 3900 nM.

Compound `C=CC(=O)N1CCN(c2ncnc3cc(-c4nc(N)cc5ccc(F)cc45)c(Cl)cc23)CC1` [Example 49, 1-[4-[7-(3-amino-7-fluoroisoquinoline-1-yl)-6-chloroquinazolin-4-yl]piperazin-1-yl]prop-2-en-1-one] came in with an EC50 of 250 nM.

With `C=CC(=O)N1CC(c2ncnc3cc(-c4nc(N)ccc4C(F)(F)F)c(Cl)cc23)C1` [Example 50, 1-(3-[7-[6-amino-3-(trifluoromethyl)pyridin-2-yl]-6-chloroquinazolin-4-yl]azetidin-1-yl)prop-2-en-1-one], the EC50 came to 5300 nM.

As to `C=CC(=O)N1CCN(c2ncnc3cc(-c4nc(N)ccc4CC(F)(F)F)c(Cl)cc23)CC1` [Example 51, 1-[4-[7-[6-amino-3-(2,2,2-trifluoroethyl)-2-pyridyl]-6-chloro-quinazolin-4-yl]piperazin-1-yl]prop-2-en-1-one], the midpoint of the response, the EC50, lay at 2800 nM.

Compound `C=CC(=O)N1CCN(c2ncnc3cc(-c4nc(N)cc(CC)c4C(F)(F)F)c(Cl)cc23)CC1` [Example 52, 1-[4-[7-[6-amino-4-ethyl-3-(trifluoromethyl)-2-pyridyl]-6-chloro-quinazolin-4-yl]piperazin-1-yl]prop-2-en-1-one] gave an EC50 of 86 nM.

For `C=CC(=O)N1CCN(c2ncnc3cc(-c4nc(NC)ccc4C(F)(F)F)c(Cl)cc23)CC1` [Example 53, 1-(4-[6-chloro-7-[6-(methylamino)-3-(trifluoromethyl)pyridin-2-yl]quinazolin-4-yl]piperazin-1-yl)prop-2-en-1-one], the EC50 came to 3400 nM.

The compound `C=CC(=O)N1CCN(c2ncnc3cc(-c4nc(N)ccc4C(F)(F)F)c(Cl)cc23)[C@@H](C)C1` [Example 54, 1-[(3S)-4-[7-[6-amino-3-(trifluoromethyl)pyridin-2-yl]-6-chloroquinazolin-4-yl]-3-methylpiperazin-1-yl]prop-2-en-1-one] came in with an EC50 of 140 nM.

In turn, `C=C(F)C(=O)N1CCN(c2nc(OC[C@@H]3CCCN3C)nc3cc(-c4nc(N)cc(C)c4C(F)(F)F)c(Cl)cc23)CC1CC#N` (stereo partly drawn) [Example 55, 2-[4-[7-[6-amino-4-methyl-3-(trifluoromethyl)-2-pyridyl]-6-chloro-2-[[(2S)-1-methylpyrrolidin-2-yl]methoxy]quinazolin-4-yl]-1-(2-fluoroprop-2-enoyl)piperazin-2-yl]acetonitrile] yielded an EC50 of 26 nM.

`C=C(F)C(=O)N1CCN(c2nc(OC[C@@H]3C[C@@H](F)CN3C)nc3cc(-c4nc(N)cc(C)c4C(F)(F)F)c(Cl)cc23)CC1CC#N` (stereo partly drawn) [Example 56, 2-[4-[7-[6-amino-4-methyl-3-(trifluoromethyl)-2-pyridyl]-6-chloro-2-[[(2S,4R)-4-fluoro-1-methyl-pyrrolidin-2-yl]methoxy]quinazolin-4-yl]-1-(2-fluoroprop-2-enoyl)piperazin-2-yl]acetonitrile]: the EC50 came out at 26 nM.

For `C=C(F)C(=O)N1CCN(c2nc(OC[C@@H]3CCCN3C)nc3cc(-c4nc(N)cc(C)c4C(F)(F)F)c(Cl)cc23)CC1CF` (stereo partly drawn) [Example 57, 1-[4-[7-[6-amino-4-methyl-3-(trifluoromethyl)-2-pyridyl]-6-chloro-2-[[(2S)-1-methylpyrrolidin-2-yl]methoxy]quinazolin-4-yl]-2-(fluoromethyl)piperazin-1-yl]-2-fluoro-prop-2-en-1-one], the EC50 was determined as 230 nM.

For the compound `C=C(F)C(=O)N1CC(C)N(c2nc(OC[C@@H]3C[C@@H](F)CN3C)nc3cc(-c4nc(N)cc(C)c4C(F)(F)F)c(Cl)cc23)C[C@H]1CC#N` (stereo partly drawn) [Example 58, 2-[(2R)-4-[7-[6-amino-4-methyl-3-(trifluoromethyl)-2-pyridyl]-6-chloro-2-[[(2S,4R)-4-fluoro-1-methyl-pyrrolidin-2-yl]methoxy]quinazolin-4-yl]-1-(2-fluoroprop-2-enoyl)-5-methyl-piperazin-2-yl]acetonitrile], the EC50 amounted to 33 nM.

`C=CC(=O)N1C[C@H](C)N(c2ncnc3cc(-c4nc(N)cc(C)c4C(F)(F)F)c(Cl)cc23)[C@@H](C)C1` [Example 60, 1-[(3S,5S)-4-[7-[6-amino-4-methyl-3-(trifluoromethyl)-2-pyridyl]-6-chloro-quinazolin-4-yl]-3,5-dimethyl-piperazin-1-yl]prop-2-en-1-one] had an EC50 of 72 nM.

The compound `C=CC(=O)N1CCN(c2nc(OC3CCCC3N(C)C)nc3cc(-c4nc(N)cc(C)c4C(F)(F)F)c(Cl)cc23)[C@@H](C)C1` (stereo partly drawn) [Example 66, 1-[(3S)-4-[7-[6-amino-4-methyl-3-(trifluoromethyl)-2-pyridyl]-6-chloro-2-[2-(dimethylamino)cyclopentoxy]quinazolin-4-yl]-3-methyl-piperazin-1-yl]prop-2-en-1-one] registered an EC50 of 28 nM.

In turn, `C=CC(=O)N1CCN(c2nc(OC[C@@H]3CCC4(CC4)N3C)nc3cc(-c4nc(N)ccc4C(F)(F)F)c(Cl)cc23)CC1` [Example 72, (S)-1-(4-(7-(6-amino-3-(trifluoromethyl)pyridin-2-yl)-6-chloro-2-((4-methyl-4-azaspiro[2.4]-heptan-5-yl)methoxy)quinazolin-4-yl)piperazin-1-yl)prop-2-en-1-one] had an EC50 of 55 nM.

Consider `C=CC(=O)N1CCN(c2nc(OCC3(C)CC(F)(F)CN3C)nc3cc(-c4nc(N)ccc4C(F)(F)F)c(Cl)cc23)CC1` (stereo not drawn) [Example 73, 1-(4-(7-(6-amino-3-(trifluoromethyl)pyridin-2-yl)-6-chloro-2-((4,4-difluoro-1,2-dimethylpyrrolidin-2-yl)methoxy)quinazolin-4-yl)piperazin-1-yl)prop-2-en-1-one], for which the EC50 stood at 110 nM.

`C=CC(=O)N1CCN(c2nc(OC(C)(C)[C@@H]3CCCN3C)nc3cc(-c4nc(N)ccc4C(F)(F)F)c(Cl)cc23)CC1` [Example 74, 1-[4-[7-[6-amino-3-(trifluoromethyl)-2-pyridyl]-6-chloro-2-[1-methyl-1-[(2S)-1-methylpyrrolidin-2-yl]ethoxy]quinazolin-4-yl]piperazin-1-yl]prop-2-en-1-one]: the response was half-maximal at 110 nM (EC50).

The compound `C=CC(=O)N1CCN(c2nc(OCCN3CC(CF)C3)nc3cc(-c4nc(N)ccc4C(F)(F)F)c(Cl)cc23)CC1` [Example 76, 1-(4-(7-(6-amino-3-(trifluoromethyl)pyridin-2-yl)-6-chloro-2-(2-(3-(fluoromethyl)azetidin-1-yl)ethoxy)quinazolin-4-yl)piperazin-1-yl)prop-2-en-1-one] displayed an EC50 of 140 nM.

Consider `C=CC(=O)N1CCN(c2nc(OC[C@@H]3[C@@H](F)CCN3C)nc3cc(-c4nc(N)ccc4C(F)(F)F)c(Cl)cc23)CC1` [Example 77, 1-[4-[7-[6-amino-3-(trifluoromethyl)-2-pyridyl]-6-chloro-2-[[(2R,3S)-3-fluoro-1-methyl-pyrrolidin-2-yl]methoxy]quinazolin-4-yl]piperazin-1-yl]prop-2-en-1-one], for which a half-maximal response (EC50) required 25 nM.

The compound `C=CC(=O)N1CCN(c2nc(OC[C@@H]3[C@H]4C[C@H]4CN3C)nc3cc(-c4nc(N)ccc4C(F)(F)F)c(Cl)cc23)CC1` [Example 78a, 1-(4-(7-(6-amino-3-(trifluoromethyl)pyridin-2-yl)-6-chloro-2-(((1S,2S,5R)-3-methyl-3-azabicyclo[3.1.0]hexan-2-yl)methoxy)quinazolin-4-yl)piperazin-1-yl)prop-2-en-1-one] gave an EC50 of 56 nM.

(Values after patent US11236068B2, “Fused ring compounds” (Genentech, Inc., priority 2018, dated 2022).)
